# Test results taken from BindingDB's records for doi:10.7270/Q2959KQ0 (n/a, 1993).
# pKi: −log10 of the molar value.
# Biological target: T1, 5-hydroxytryptamine receptor 3A/3B (Rattus norvegicus, UniProt P35563+Q9JJ16)
# T1 sequence (P35563 whole entry): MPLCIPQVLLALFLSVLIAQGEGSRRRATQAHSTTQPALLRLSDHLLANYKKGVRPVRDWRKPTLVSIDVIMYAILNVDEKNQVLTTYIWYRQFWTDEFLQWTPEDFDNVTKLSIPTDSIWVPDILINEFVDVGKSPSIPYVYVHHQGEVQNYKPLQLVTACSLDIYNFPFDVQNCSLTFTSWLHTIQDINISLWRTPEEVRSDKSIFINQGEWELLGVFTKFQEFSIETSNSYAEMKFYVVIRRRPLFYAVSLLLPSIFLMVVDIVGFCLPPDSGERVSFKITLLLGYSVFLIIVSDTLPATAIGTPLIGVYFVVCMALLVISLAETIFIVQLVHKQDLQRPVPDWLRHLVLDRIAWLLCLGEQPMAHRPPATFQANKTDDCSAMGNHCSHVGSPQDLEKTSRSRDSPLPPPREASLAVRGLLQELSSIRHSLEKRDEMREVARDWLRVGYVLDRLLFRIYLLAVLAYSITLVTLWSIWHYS
# T1 sequence (Q9JJ16 whole entry): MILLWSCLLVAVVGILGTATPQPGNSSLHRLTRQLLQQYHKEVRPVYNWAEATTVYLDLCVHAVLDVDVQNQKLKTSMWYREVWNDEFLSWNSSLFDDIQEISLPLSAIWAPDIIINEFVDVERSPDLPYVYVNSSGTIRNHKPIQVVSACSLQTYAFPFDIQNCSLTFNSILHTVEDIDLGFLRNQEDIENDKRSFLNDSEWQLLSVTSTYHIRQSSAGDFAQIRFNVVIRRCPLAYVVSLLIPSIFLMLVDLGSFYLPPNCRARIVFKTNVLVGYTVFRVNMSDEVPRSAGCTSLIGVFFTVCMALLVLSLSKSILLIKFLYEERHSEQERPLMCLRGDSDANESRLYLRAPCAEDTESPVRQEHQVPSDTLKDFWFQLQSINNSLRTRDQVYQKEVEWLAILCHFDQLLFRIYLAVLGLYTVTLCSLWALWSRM
# Assay: Binding affinity to 5-hydroxytryptamine 3 receptor was determined in rat cerebro cortical membranes using [3H]quipazine.
smiles,measurement,value
COc1cc(N)c(Cl)cc1C(=O)N[C@H]1CN2CCC1CC2 [4-Amino-N-(R)-1-aza-bicyclo[2.2.2]oct-3-yl-5-chloro-2-methoxy-benzamide],pKi,8.49
